Results: ChEMBL document CHEMBL3272243, “Synthesis and biological activity of camel and bovine beta-melanotropins” (1976)

Key:
Format in all cases: functional, Anura
Parameters in all cases: scale not given: the % may be the effect or the level left
Zone of skin [1] = assay: Melanocyte stimulating activity in frog skin assessed as decrease in reflectance at 2.7 ng relative to control
Zone of skin [2] = assay: Melanocyte stimulating activity in frog skin assessed as decrease in reflectance at 2.7 to 8.1 ng relative to camel betaC2-MSH
Zone of skin [3] = assay: Melanocyte stimulating activity in frog skin assessed as decrease in reflectance at 2.7 to 8.1 ng relative to bovine beta-MSH
Zone of skin [4] = assay: Melanocyte stimulating activity in frog skin assessed as decrease in reflectance at 8.1 ng relative to control
Zone of skin [5] = assay: Melanocyte stimulating activity in frog skin assessed as decrease in reflectance at 6.9 ng relative to control
Zone of skin [6] = assay: Melanocyte stimulating activity in frog skin assessed as decrease in reflectance at 2.3 ng relative to control
Zone of skin [7] = assay: Melanocyte stimulating activity in frog skin assessed as decrease in reflectance at 5.4 ng relative to control
Zone of skin [8] = assay: Melanocyte stimulating activity in frog skin assessed as decrease in reflectance at 1.8 ng relative to control

Substance | Activity (Zone of skin [1]) | Activity (Zone of skin [2]) | Activity (Zone of skin [3]) | Activity (Zone of skin [4]) | Activity (Zone of skin [5]) | Activity (Zone of skin [6]) | Activity (Zone of skin [7]) | Activity (Zone of skin [8])
H-DSGPYKMEHFRWGSPPKD-OH | 30.1% | 105.6% | 120.2% | 49.6% | 44.6% | 29.1% | – | –
H-DGGPYKMEHFRWGSPPKD-OH | 36.4% | 87.8% | – | 56.5% | – | – | 53% | 28.4%
